Laboratory results published in PMC9785202, “Changes in Disposition of Ezetimibe and Its Active Metabolites Induced by Impaired Hepatic Function: The Influence of Enzyme and Transporter Activities” (Pharmaceutics, 2022).
Read-outs that look alike come from different tables or passages of the source.

Experiments:
[1] = design: method as in earlier work; details: cited from earlier work
OATP2B1 = target: T1, OATP2B1 (Homo sapiens, UniProt O94956); test: Uptake of EZE-Ph into OATP2B1-transfected HEK293 cells; assay type: in vitro ADME
T1 construct: host or cells: HEK293
T1 sequence (O94956 1-709): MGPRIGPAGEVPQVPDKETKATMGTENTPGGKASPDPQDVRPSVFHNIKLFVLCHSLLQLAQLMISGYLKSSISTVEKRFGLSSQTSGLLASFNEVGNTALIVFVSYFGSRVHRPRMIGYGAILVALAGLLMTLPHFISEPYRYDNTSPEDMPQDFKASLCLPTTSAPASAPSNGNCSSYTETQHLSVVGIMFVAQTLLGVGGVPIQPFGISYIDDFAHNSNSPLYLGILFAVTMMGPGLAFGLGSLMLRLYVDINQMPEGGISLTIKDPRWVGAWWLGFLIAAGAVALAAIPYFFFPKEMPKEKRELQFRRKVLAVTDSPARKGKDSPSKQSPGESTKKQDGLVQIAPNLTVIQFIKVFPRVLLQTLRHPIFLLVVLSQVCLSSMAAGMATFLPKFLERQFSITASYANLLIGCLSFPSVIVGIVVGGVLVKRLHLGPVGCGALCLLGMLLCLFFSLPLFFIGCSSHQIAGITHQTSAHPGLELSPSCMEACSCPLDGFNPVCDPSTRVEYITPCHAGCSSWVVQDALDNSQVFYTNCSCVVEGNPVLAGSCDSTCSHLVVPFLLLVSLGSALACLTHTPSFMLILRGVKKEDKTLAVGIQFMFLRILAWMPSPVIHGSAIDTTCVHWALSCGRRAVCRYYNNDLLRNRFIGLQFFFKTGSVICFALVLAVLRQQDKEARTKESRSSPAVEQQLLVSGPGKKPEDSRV
Protocol: The kinetic parameters and the half inhibitory concentration (IC50) were calculated using GraphPad Prism. […] The intrinsic clearance (CLint) was calculated as CLint = Vmax/Km.

liver slices = test: Uptake of EZE-Ph in liver slices of control and CCl4-induced rats; assay type: in vitro ADME, rat; details: 10 μM EZE-Ph, 10 min
Protocol: Liver slices were prepared as previously described elsewhere. Rats were anesthetized and sacrificed via exsanguination from the abdominal aorta, and the livers were excised. Liver cylindrical cores of an 8 mm diameter were made before slicing. Liver slices with a thickness of 300 μm were obtained using a Krumdieck tissue slicer MD6000 (TSE systems, Chesterfield, MO) with ice-cold and carbogen-saturated Krebs–Henseleit buffer.
After 5 min of preincubation at 4 and 37 °C, the liver slices were transferred to 24-well plates containing 500 μL of buffer with 10 μM EZE-Ph for 10 min. After incubation, the liver slices were washed 3 times with ice-cold HBSS and dried on filter paper. Each liver slice was homogenized with 200 μL of purified water and the protein content was determined using a BCA protein assay kit. The concentration of EZE-Ph was determined using LC-MS/MS.

uptake in transporter-transfected cells relative to mock-transfected cells (OATP2B1; 10 μM EZE-Ph, OATP2B1 HEK293) [times] | CLint (OATP2B1; OATP2B1 HEK293, CLint = Vmax/Km) [μL/min/mg Protein] | Kinetic Model (OATP2B1; OATP2B1 HEK293, uptake time 5 min) | EZE-Ph uptake in liver slices, 37 °C vs 4 °C (liver slices) | EZE-Ph uptake in liver slices, control vs CCl4-induced rats (liver slices) | SMILES | plasma exposure, fold higher than in healthy subjects ([1]; mild CLD patients) [fold] | plasma exposure, fold higher than in healthy subjects ([1]; moderate CLD patients) [fold] | plasma exposure, fold higher than in healthy subjects ([1]; severe CLD patients) [fold]
– | – | – | – | – | O=C1[C@H](CC[C@H](O)c2ccc(F)cc2)[C@@H](c2ccc(O)cc2)N1c1ccc(F)cc1 [EZE, 1-(4-fluorophenyl)-3(R)-[3-(4-fluorophenyl)-3(S)-hydroxypropyl]-4(S)-(4-hydroxyphenyl)-2-azetidinone, reference compound] | 1.4 | 5.8 | 4.8
3.7 | 0.56 | Michaelis–Menten | significantly greater at 37 °C than 4 °C | no significant difference | O=C(O)[C@H]1O[C@@H](Oc2ccc([C@@H]3[C@@H](CC[C@H](O)c4ccc(F)cc4)C(=O)N3c3ccc(F)cc3)cc2)[C@H](O)[C@@H](O)[C@@H]1O [EZE-Ph, ezetimibe phenoxy β-D-glucuronide] | – | – | –
